Assay results: patent publication US10202353B2, “Therapeutic compounds” (Gilead Sciences, Inc., priority 2014, dated 2019)

How the values were obtained:
[1] = Test B: Cytotoxicity Assay; format: cell-based; details: human, uninfected MT4 cells, same protocol as Test A
Procedure: (§1) For the antiviral assay, 40 μL of a concentration required to achieve a final effective 1× test concentration of 3-fold serially diluted compound in culture medium with 10% FBS was added to each well of a 384-well plate (10 concentrations) in quadruplicate. MT4 cells were next mixed with HIV-IIIb at an m.o.i of 0.003 for 1 hour, after which time 35 μL of virus/cell mixture (2000 cells) was immediately added to each well containing 40 μL of diluted compound. The plates were then incubated at 37° C. for 5 days. After 5 days of incubation, 25 μl of 2× concentrated CellTiter-Glo™ Reagent (catalog # G7571, Promega Biosciences, Inc., Madison, Wis.) was added to each well containing MT-4 cells. Cell lysis was carried out by incubating at room temperature for 10 min and then chemiluminescence was read. EC50 values were calculated as the compound concentration that caused a 50% decrease in luminescence signal, a measure of HIV-1 replication. Percent inhibition of virus-induced cell killing calculated from the dose response curve at 2 μM drug concentration is shown in the table below. Compound cytotoxicity and the corresponding CC50 values was determined using the same protocol as described in the antiviral assay (Test A) except that uninfected cells were used.

HIV-IIIb = test: Test A: Antiviral assay in MT4 Cells; format: cell-based, HIV-1; details: Human immunodeficiency virus 1, 120 h; 2 μM drug concentration; MT4 cells infected with HIV-IIIb, 5 days; calculated from dose response curve; values normalized to 100% where greater than 100; read-out: % Inhibition at 2 μM (percent inhibition of virus-induced cell killing)
Procedure: as §1, with “below.” for “below. Compound cytotoxicity and the corresponding CC50 values was determined using the same protocol as described in the antiviral assay (Test A) except that uninfected cells were used.”

COc1ccc(N(C)C(=O)[C@H](Cc2ccccc2)NC(=O)Cn2nc(C(F)(F)F)c3c2CCCC3)cc1 [Compound 2]
CC50 at 5 days [1]: 18.4 µM | inhibition at 2 µM (HIV-IIIb): 100%

CN(C(=O)[C@H](Cc1cc(F)cc(F)c1)NC(=O)Cn1c(N)nc2c1c(=O)[nH]c(=O)n2C)c1ccc(Cl)cc1 [Compound 32, (S)-2-(2-(8-amino-3-methyl-2,6-dioxo-2,3-dihydro-1H-purin-7(6)-yl)acetamido)-N-(4-chlorophenyl)-3-(3,5-difluorophenyl)-N-methylpropanamide]
CC50 at 5 days [1]: > 53 µM | inhibition at 2 µM (HIV-IIIb): 39%

CN(C(=O)[C@H](Cc1cccc(C(F)(F)F)c1)NC(=O)Cn1nc(C(F)(F)F)c2c1CCCC2)c1ccccc1 [Compound 21, (S)—N-methyl-N-phenyl-2-(2-(3-(trifluoromethyl)-4,5,6,7-tetrahydro-1H-indazol-1-yl)acetamido)-3-(3-(trifluoromethyl)phenyl)propanamide]
CC50 at 5 days [1]: 11.3 µM | inhibition at 2 µM (HIV-IIIb): 0%

COc1ccc(N(C)C(=O)[C@H](Cc2cc(F)cc(F)c2)NC(=O)Cn2ncc3c2CCCC3)cc1 [Compound 31, (S)-3-(3,5-difluorophenyl)-N-(4-methoxyphenyl)-N-methyl-2-(2-(4,5,6,7-tetrahydro-1H-indazol-1-yl)acetamido)propanamide]
CC50 at 5 days [1]: > 53 µM | inhibition at 2 µM (HIV-IIIb): 78%

CN(C(=O)[C@H](Cc1csc2ccccc12)NC(=O)Cn1nc(C(F)(F)F)c2c1CCCC2)c1ccccc1 [Compound 10, (S)-3-(benzo[b]thiophen-3-yl)-N-methyl-N-phenyl-2-(2-(3-(trifluoromethyl)-4,5,6,7-tetrahydro-1H-indazol-1-yl)acetamido)propanamide]
CC50 at 5 days [1]: 10.5 µM | inhibition at 2 µM (HIV-IIIb): 2%

COc1ccc(N(C)C(=O)[C@H](Cc2cc(F)cc(F)c2)NC(=O)Cn2nc(C(F)(F)F)c3c2C(C)CCC3)cc1 (stereo partly drawn) [Compound 26, (2S)-3-(3,5-difluorophenyl)-N-(4-methoxyphenyl)-N-methyl-2-(2-(7-methyl-3-(trifluoromethyl)-4,5,6,7-tetrahydro-1H-indazol-1-yl)acetamido)propanamide]
CC50 at 5 days [1]: 9.82 µM | inhibition at 2 µM (HIV-IIIb): 100%

CN(C(=O)[C@H](Cc1ccccc1)NC(=O)Cn1nc(C(F)(F)F)c2c1CCCC2)c1ccc2ccccc2c1 [Compound 3, (S)—N-methyl-N-(naphthalen-2-yl)-3-phenyl-2-(2-(3-(trifluoromethyl)-4,5,6,7-tetrahydro-1H-indazol-1-yl)acetamido)propanamide]
CC50 at 5 days [1]: 11.1 µM | inhibition at 2 µM (HIV-IIIb): 79%

COc1ccc(N(C)C(=O)[C@H](Cc2cc(F)cc(F)c2)NC(=O)Cn2nc(C(F)(F)F)c3c2CCC(C)(O)C3)cc1 (stereo partly drawn) [Compound 29, (2S)-3-(3,5-difluorophenyl)-2-(2-(5-hydroxy-5-methyl-3-(trifluoromethyl)-4,5,6,7-tetrahydro-1H-indazol-1-yl)acetamido)-N-(4-methoxyphenyl)-N-methylpropanamide]
CC50 at 5 days [1]: 32.1 µM | inhibition at 2 µM (HIV-IIIb): 82%

CN(C(=O)[C@H](Cc1cccnc1)NC(=O)Cn1nc(C(F)(F)F)c2c1CCCC2)c1ccccc1 [Compound 6]
CC50 at 5 days [1]: > 53 µM | inhibition at 2 µM (HIV-IIIb): 52%

CN(C(=O)[C@H](Cc1ccccn1)NC(=O)Cn1nc(C(F)(F)F)c2c1CCCC2)c1ccccc1 [Compound 7]
CC50 at 5 days [1]: > 53 µM | inhibition at 2 µM (HIV-IIIb): 1%

COc1ccc(N(C)C(=O)[C@H](Cc2cc(F)cc(F)c2)NC(=O)Cn2nc(C(F)(F)F)c3c2CCC(=O)C3)cc1 [Compound 28, (S)-3-(3,5-difluorophenyl)-N-(4-methoxyphenyl)-N-methyl-2-(2-(5-oxo-3-(trifluoromethyl)-4,5,6,7-tetrahydro-1H-indazol-1-yl)acetamido)propanamide]
CC50 at 5 days [1]: 37.2 µM | inhibition at 2 µM (HIV-IIIb): 76%

CN(C(=O)[C@H](Cc1ccccc1)NC(=O)Cn1nc(C(F)(F)F)c2c1CCCC2)c1ccccc1 [Compound 1, (S)—N-methyl-N,3-diphenyl-2-(2-(3-(trifluoromethyl)-4,5,6,7-tetrahydro-1H-indazol-1-yl)acetamido)propanamide]
CC50 at 5 days [1]: 23.5 µM | inhibition at 2 µM (HIV-IIIb): 98%

CN(C(=O)[C@H](Cc1cncn1C)NC(=O)Cn1nc(C(F)(F)F)c2c1CCCC2)c1ccccc1 [Compound 9]
CC50 at 5 days [1]: > 53 µM | inhibition at 2 µM (HIV-IIIb): 5%

CN(C(=O)[C@H](Cc1ccccc1)NC(=O)Cn1nc(C(F)(F)F)c2c1CCCCC2)c1ccccc1 [Compound 13]
CC50 at 5 days [1]: 22.2 µM | inhibition at 2 µM (HIV-IIIb): 87%

CN(C(=O)[C@H](Cc1cscn1)NC(=O)Cn1nc(C(F)(F)F)c2c1CCCC2)c1ccccc1 [Compound 11, (S)—N-methyl-N-phenyl-3-(thiazol-4-yl)-2-(2-(3-(trifluoromethyl)-4,5,6,7-tetrahydro-1H-indazol-1-yl)acetamido)propanamide]
CC50 at 5 days [1]: > 53 µM | inhibition at 2 µM (HIV-IIIb): 21%

CN(C(=O)[C@H](Cc1cc(F)cc(F)c1)NC(=O)Cn1[nH]c(=O)c2c1CCCC2)c1ccc(Cl)cc1 [Compound 30]
CC50 at 5 days [1]: 22.2 µM | inhibition at 2 µM (HIV-IIIb): 100%

CN(C(=O)[C@H](Cc1cccc(C(N)=O)c1)NC(=O)Cn1nc(C(F)(F)F)c2c1CCCC2)c1ccccc1 [Compound 18, (S)-3-(3-(methyl(phenyl)amino)-3-oxo-2-(2-(3-(trifluoromethyl)-4,5,6,7-tetrahydro-1H-indazol-1-yl)acetamido)propyl)benzamide]
CC50 at 5 days [1]: > 53 µM | inhibition at 2 µM (HIV-IIIb): 0%

COc1ccc(N(C)C(=O)[C@H](Cc2cc(F)cc(F)c2)NC(=O)Cn2nc(C(F)(F)F)c3c2CC(C)CC3)cc1 (stereo partly drawn) [Compound 25, (2S)-3-(3,5-difluorophenyl)-N-(4-methoxyphenyl)-N-methyl-2-(2-(6-methyl-3-(trifluoromethyl)-4,5,6,7-tetrahydro-1H-indazol-1-yl)acetamido)propanamide]
CC50 at 5 days [1]: 11.1 µM | inhibition at 2 µM (HIV-IIIb): 100%

CN(C(=O)[C@H](Cn1cccn1)NC(=O)Cn1nc(C(F)(F)F)c2c1CCCC2)c1ccccc1 [Compound 12, (S)—N-methyl-N-phenyl-3-(1H-pyrazol-1-yl)-2-(2-(3-(trifluoromethyl)-4,5,6,7-tetrahydro-1H-indazol-1-yl)acetamido)propanamide]
CC50 at 5 days [1]: > 53 µM | inhibition at 2 µM (HIV-IIIb): 10%

CN(C(=O)[C@H](Cc1ccsc1)NC(=O)Cn1nc(C(F)(F)F)c2c1CCCC2)c1ccccc1 [Compound 22, (S)—N-methyl-N-phenyl-3-(thiophen-3-yl)-2-(2-(3-(trifluoromethyl)-4,5,6,7-tetrahydro-1H-indazol-1-yl)acetamido)propanamide]
CC50 at 5 days [1]: 25 µM | inhibition at 2 µM (HIV-IIIb): 94%

CN(C(=O)[C@H](CC1CCC1)NC(=O)Cn1nc(C(F)(F)F)c2c1CCCC2)c1ccccc1 [Compound 14]
CC50 at 5 days [1]: 29 µM | inhibition at 2 µM (HIV-IIIb): 16%

CN(C(=O)[C@H](Cc1cc(F)cc(F)c1)NC(=O)Cc1cc(F)cc2c1OCOC2)c1ccc(Cl)cc1 [Compound 33, (S)—N-(4-chlorophenyl)-3-(3,5-difluorophenyl)-2-(2-(6-fluoro-4H-benzo[d][1,3]dioxin-8-yl)acetamido)-N-methylpropanamide]
CC50 at 5 days [1]: 18.4 µM | inhibition at 2 µM (HIV-IIIb): 34%

CN(C(=O)[C@H](Cc1cccc(Br)c1)NC(=O)Cn1nc(C(F)(F)F)c2c1CCCC2)c1ccccc1 [Compound 19, (S)-3-(3-bromophenyl)-N-methyl-N-phenyl-2-(2-(3-(trifluoromethyl)-4,5,6,7-tetrahydro-1H-indazol-1-yl)acetamido)propanamide]
CC50 at 5 days [1]: 17.3 µM | inhibition at 2 µM (HIV-IIIb): 27%
